Literature values, collected in patent publication EP0611214A2, “Acidic composition and process of using same” (MINNESOTA MINING AND MANUFACTURING COMPANY, priority 1993, dated 1994).

Details: in water, as reported in U.S. Pat. No. 5,080,822, column 4

Compound | aqueous ambient temperature solubility in weight percent [weight percent]
OCCc1ccccc1 [8-phenylethanol] | 1.6
CC(=O)c1ccccc1 [acetophenone] | 0.5
OCc1ccccc1 [benzyl alcohol] | 4.4

Results, then the molecule that gave them:

aqueous ambient temperature solubility in weight percent [weight percent] | Compound
1.1 | CC(O)COc1ccccc1 (centres unmarked) [1-phenoxy-2-propanol]
2.3 | OCCOc1ccccc1 [2-phenoxyethanol]
